≈ marks a conversion by molar mass, not a printed value.
Test system: Mannheimia haemolytica
Test: minimum inhibitory concentration (MIC)
Protocol: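 Broth microdilution MIC (Sensititre BOPO7F bovine plate, CLSI methods) of 19 antimicrobials against field isolates of P. multocida, M. haemolytica, H. somni (deep nasopharyngeal swabs) and E. coli, Enterococcus spp. (rectal swabs) from weaned dairy heifers. Incubation 16-24 h at 35 C. MIC is the lowest concentration preventing visible growth. Values with <= or > lie at the tested range limits. Trimethoprim-sulfamethoxazole is given as the trimethoprim component of a 1:19 mixture.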

CN(C)[C@@H]1C(O)=C(C(N)=O)C(=O)[C@@]2(O)C(O)=C3C(=O)c4c(O)cccc4[C@@](C)(O)[C@H]3C[C@@H]12 [Tetracycline]
Details | minimum inhibitory concentration [µg/mL]
isolate (source animal id): 8 | > 8
isolate (source animal id): 13 | > 8
isolate (source animal id): 18 | > 8
isolate (source animal id): 21 | > 8
isolate (source animal id): 25 | 4 (≈ 9 µM)
isolate (source animal id): 27 | 8 (≈ 18 µM)
isolate (source animal id): 28 | 8 (≈ 18 µM)
isolate (source animal id): 30 | > 8
isolate (source animal id): 31 | > 8
isolate (source animal id): 32 | > 8
isolate (source animal id): 34 | 8 (≈ 18 µM)
isolate (source animal id): 36 | 8 (≈ 18 µM)
isolate (source animal id): 37 | 8 (≈ 18 µM)
isolate (source animal id): 40 | > 8
isolate (source animal id): 41 | 8 (≈ 18 µM)
isolate (source animal id): 43 | > 8
isolate (source animal id): 46 | 8 (≈ 18 µM)
isolate (source animal id): 49 | 4 (≈ 9 µM)
isolate (source animal id): 50 | 8 (≈ 18 µM)
isolate (source animal id): 51 | 8 (≈ 18 µM)
isolate (source animal id): 52 | > 8
isolate (source animal id): 53 | > 8
isolate (source animal id): 55 | > 8
isolate (source animal id): 56 | > 8
isolate (source animal id): 57 | > 8
isolate (source animal id): 100 | > 8
isolate (source animal id): 103 | 4 (≈ 9 µM)
isolate (source animal id): 107 | 4 (≈ 9 µM)
isolate (source animal id): 108 | > 8
isolate (source animal id): 112 | > 8
isolate (source animal id): 113 | > 8
isolate (source animal id): 121 | 8 (≈ 18 µM)
isolate (source animal id): 122 | 4 (≈ 9 µM)
isolate (source animal id): 123 | > 8
isolate (source animal id): 126 | 4 (≈ 9 µM)
isolate (source animal id): 133 | > 8
isolate (source animal id): 135 | > 8
isolate (source animal id): 138 | 4 (≈ 9 µM)
isolate (source animal id): 141 | > 8
isolate (source animal id): 142 | > 8
isolate (source animal id): 145 | 4 (≈ 9 µM)
isolate (source animal id): 149 | ≤ 0.5
isolate (source animal id): 151 | ≤ 0.5
isolate (source animal id): 152 | 4 (≈ 9 µM)
isolate (source animal id): 154 | ≤ 0.5
isolate (source animal id): 159 | 4 (≈ 9 µM)
isolate (source animal id): 162 | 4 (≈ 9 µM)
isolate (source animal id): 170 | 8 (≈ 18 µM)
isolate (source animal id): 171 | ≤ 0.5
isolate (source animal id): 172 | 8 (≈ 18 µM)
isolate (source animal id): 173 | 8 (≈ 18 µM)
isolate (source animal id): 179 | 4 (≈ 9 µM)
isolate (source animal id): 180 | 4 (≈ 9 µM)
isolate (source animal id): 183 | 4 (≈ 9 µM)
isolate (source animal id): 186 | 4 (≈ 9 µM)
isolate (source animal id): 187 | 4 (≈ 9 µM)
isolate (source animal id): 188 | 4 (≈ 9 µM)
isolate (source animal id): 190 | ≤ 0.5
isolate (source animal id): 191 | 8 (≈ 18 µM)
isolate (source animal id): 192 | ≤ 0.5
isolate (source animal id): 201 | 8 (≈ 18 µM)
isolate (source animal id): 202 | 4 (≈ 9 µM)
isolate (source animal id): 209 | 8 (≈ 18 µM)
isolate (source animal id): 211 | ≤ 0.5
isolate (source animal id): 220 | 8 (≈ 18 µM)
isolate (source animal id): 221 | 4 (≈ 9 µM)
isolate (source animal id): 223 | 4 (≈ 9 µM)
isolate (source animal id): 233 | 4 (≈ 9 µM)
isolate (source animal id): 237 | ≤ 0.5
isolate (source animal id): 241 | 8 (≈ 18 µM)
isolate (source animal id): 252 | 4 (≈ 9 µM)
isolate (source animal id): 253 | > 8
isolate (source animal id): 259 | 8 (≈ 18 µM)
isolate (source animal id): 260 | > 8
isolate (source animal id): 262 | 4 (≈ 9 µM)
isolate (source animal id): 282 | 4 (≈ 9 µM)
isolate (source animal id): 287 | 8 (≈ 18 µM)
isolate (source animal id): 288 | ≤ 0.5
isolate (source animal id): 291 | ≤ 0.5
isolate (source animal id): 293 | 4 (≈ 9 µM)
isolate (source animal id): 298 | > 8
isolate (source animal id): 299 | > 8
isolate (source animal id): 300 | ≤ 0.5
isolate (source animal id): 302 | > 8
isolate (source animal id): 304 | > 8
isolate (source animal id): 306 | ≤ 0.5
isolate (source animal id): 308 | ≤ 0.5
isolate (source animal id): 309 | ≤ 0.5
isolate (source animal id): 313 | 4 (≈ 9 µM)
isolate (source animal id): 318 | 4 (≈ 9 µM)
isolate (source animal id): 320 | ≤ 0.5
isolate (source animal id): 321 | 4 (≈ 9 µM)
isolate (source animal id): 323 | > 8
isolate (source animal id): 324 | 8 (≈ 18 µM)
isolate (source animal id): 326 | 4 (≈ 9 µM)
isolate (source animal id): 328 | 8 (≈ 18 µM)
isolate (source animal id): 329 | 4 (≈ 9 µM)
isolate (source animal id): 333 | 4 (≈ 9 µM)
isolate (source animal id): 335 | 4 (≈ 9 µM)
isolate (source animal id): 338 | 4 (≈ 9 µM)

CC[C@H]1OC(=O)C[C@@H](O)[C@H](C)[C@@H](O[C@@H]2O[C@H](C)[C@@H](O)[C@H](N(C)C)[C@H]2O)[C@@H](CCN2CCCCC2)C[C@@H](C)C(=O)/C=C/C(C)=C/[C@@H]1CN1CCCCC1 [Tildipirosin]
Details | minimum inhibitory concentration [µg/mL]
isolate (source animal id): 8 | ≤ 1
isolate (source animal id): 13 | ≤ 1
isolate (source animal id): 18 | ≤ 1
isolate (source animal id): 21 | ≤ 1
isolate (source animal id): 25 | 16 (≈ 21.8 µM)
isolate (source animal id): 27 | 16 (≈ 21.8 µM)
isolate (source animal id): 28 | 4 (≈ 5.45 µM)
isolate (source animal id): 30 | ≤ 1
isolate (source animal id): 31 | 4 (≈ 5.45 µM)
isolate (source animal id): 32 | ≤ 1
isolate (source animal id): 34 | ≤ 1
isolate (source animal id): 36 | 16 (≈ 21.8 µM)
isolate (source animal id): 37 | 16 (≈ 21.8 µM)
isolate (source animal id): 40 | ≤ 1
isolate (source animal id): 41 | ≤ 1
isolate (source animal id): 43 | ≤ 1
isolate (source animal id): 46 | 16 (≈ 21.8 µM)
isolate (source animal id): 49 | 16 (≈ 21.8 µM)
isolate (source animal id): 50 | 16 (≈ 21.8 µM)
isolate (source animal id): 51 | ≤ 1
isolate (source animal id): 52 | ≤ 1
isolate (source animal id): 53 | ≤ 1
isolate (source animal id): 55 | ≤ 1
isolate (source animal id): 56 | ≤ 1
isolate (source animal id): 57 | > 16
isolate (source animal id): 100 | 16 (≈ 21.8 µM)
isolate (source animal id): 103 | 16 (≈ 21.8 µM)
isolate (source animal id): 107 | 16 (≈ 21.8 µM)
isolate (source animal id): 108 | 16 (≈ 21.8 µM)
isolate (source animal id): 112 | > 16
isolate (source animal id): 113 | > 16
isolate (source animal id): 121 | 16 (≈ 21.8 µM)
isolate (source animal id): 122 | 2 (≈ 2.72 µM)
isolate (source animal id): 123 | > 16
isolate (source animal id): 126 | > 16
isolate (source animal id): 133 | > 16
isolate (source animal id): 135 | > 16
isolate (source animal id): 138 | > 16
isolate (source animal id): 141 | > 16
isolate (source animal id): 142 | > 16
isolate (source animal id): 145 | 4 (≈ 5.45 µM)
isolate (source animal id): 149 | 2 (≈ 2.72 µM)
isolate (source animal id): 151 | 2 (≈ 2.72 µM)
isolate (source animal id): 152 | 16 (≈ 21.8 µM)
isolate (source animal id): 154 | ≤ 1
isolate (source animal id): 159 | > 16
isolate (source animal id): 162 | > 16
isolate (source animal id): 170 | 2 (≈ 2.72 µM)
isolate (source animal id): 171 | ≤ 1
isolate (source animal id): 172 | 2 (≈ 2.72 µM)
isolate (source animal id): 173 | 2 (≈ 2.72 µM)
isolate (source animal id): 179 | 2 (≈ 2.72 µM)
isolate (source animal id): 180 | ≤ 1
isolate (source animal id): 183 | ≤ 1
isolate (source animal id): 186 | ≤ 1
isolate (source animal id): 187 | ≤ 1
isolate (source animal id): 188 | ≤ 1
isolate (source animal id): 190 | ≤ 1
isolate (source animal id): 191 | 2 (≈ 2.72 µM)
isolate (source animal id): 192 | ≤ 1
isolate (source animal id): 201 | 2 (≈ 2.72 µM)
isolate (source animal id): 202 | 4 (≈ 5.45 µM)
isolate (source animal id): 209 | 2 (≈ 2.72 µM)
isolate (source animal id): 211 | 2 (≈ 2.72 µM)
isolate (source animal id): 220 | 2 (≈ 2.72 µM)
isolate (source animal id): 221 | 2 (≈ 2.72 µM)
isolate (source animal id): 223 | 2 (≈ 2.72 µM)
isolate (source animal id): 233 | 8 (≈ 10.9 µM)
isolate (source animal id): 237 | 16 (≈ 21.8 µM)
isolate (source animal id): 241 | 16 (≈ 21.8 µM)
isolate (source animal id): 252 | 16 (≈ 21.8 µM)
isolate (source animal id): 253 | 16 (≈ 21.8 µM)
isolate (source animal id): 259 | > 16
isolate (source animal id): 260 | > 16
isolate (source animal id): 262 | 16 (≈ 21.8 µM)
isolate (source animal id): 282 | > 16
isolate (source animal id): 287 | > 16
isolate (source animal id): 288 | ≤ 1
isolate (source animal id): 291 | ≤ 1
isolate (source animal id): 293 | 16 (≈ 21.8 µM)
isolate (source animal id): 298 | > 16
isolate (source animal id): 299 | > 16
isolate (source animal id): 300 | ≤ 1
isolate (source animal id): 302 | > 16
isolate (source animal id): 304 | > 16
isolate (source animal id): 306 | ≤ 1
isolate (source animal id): 308 | ≤ 1
isolate (source animal id): 309 | ≤ 1
isolate (source animal id): 313 | > 16
isolate (source animal id): 318 | 8 (≈ 10.9 µM)
isolate (source animal id): 320 | ≤ 1
isolate (source animal id): 321 | > 16
isolate (source animal id): 323 | > 16
isolate (source animal id): 324 | 16 (≈ 21.8 µM)
isolate (source animal id): 326 | > 16
isolate (source animal id): 328 | > 16
isolate (source animal id): 329 | > 16
isolate (source animal id): 333 | > 16
isolate (source animal id): 335 | 16 (≈ 21.8 µM)
isolate (source animal id): 338 | 16 (≈ 21.8 µM)
